From patent publication US5192766A, “N-acryloylpiperazine derivatives, their preparation and their use as PAF antagonists” (Sankyo Company, Limited, priority 1989, dated 1993)

Key:
PAF-induced hypotension = test: Inhibition of PAF-induced hypotension; assay type: in vivo, Wistar-Imamichi rats; settings: Rattus norvegicus, iv, 1 min; anesthetized rats; l-C16:0 PAF 10 ng/kg i.v.; test compound i.v. cumulatively, 1 min before PAF; read-out: Inhibitory effect ID50
Procedure: Inhibition of PAF-induced hypotension
The test animals used were Wistar-Imamichi rats, each weighing from 350 to 450 g, anesthetized with Inactin (90 mg/kd, intraperitoneally).
Blood pressure was continuously measured throughout the experiment through a cannula inserted into the femoral artery. Each drug sample to be tested was intravenously injected through a cannula inserted into the femoral vein.
At first, l-C16:0 PAF was injected intravenously in amounts of 10 ng/kg at each injection at intervals of 5 minutes until the degree of the hypotensive response became constant. Then, each drug sample to be treated was intravenously injected. After one minute, the same dose of PAF was administered again. The drug sample was cumulatively administered. From its inhibition rate against the PAF-induced hypotensive effect, the 50% inhibitive dose (ID50) was determined, and is regarded as an index of PAF-antagonist activity. For administration, the PAF was dissolved in physiological saline solution containing 0.25% w/v of bovine serum albumin (BSA). The compounds under test were dissolved in dimethylformamide for use.
CV-3988 is disclosed in U.S. Pat. No. 4,408,052, and is structurally related to PAF itself.
In this Table, the compounds of the invention are identified by the number of the foregoing Example in which they were prepared.

Acute toxicity = assay type: in vivo; settings: oral, 300 mg/kg, 3 male ddy mice (5 weeks old), observed one week
Procedure: Each of the compounds prepared as described in Examples 2, 7 and 15 was separately administered orally in a dose of 300 mg/kg to each of a group of 3 male ddy mice (5 weeks old).

[1] = tested on: blood platelet (PAF-induced aggregation); test: Inhibitory effect in vitro against PAF-induced blood platelet aggregation; assay type: cell-based; settings: Oryctolagus cuniculus, 5 min; rabbit platelet rich plasma; l-C16:0 PAF final 10^-8 ~3×10^-8 M; 5 min observation
Procedure: Inhibitory effect in vitro against PAF-induced blood platelet aggregation
Blood samples were drawn from a rabbit and one part by volume of each sample was immediately mixed with 1/9 part of a 3.8% w/v aqueous solution of sodium citrate. The samples were centrifuged at 150×G at room temperature for 15 minutes to obtain a platelet rich plasma (PRP) fraction from the upper layer. The remains were further centrifuged at 1,000×G for 15 minutes to obtain a platelet poor plasma (PPP) fraction from the upper layer. The PRP and PPP fractions were mixed appropriately, to obtain a sample in which the final count of blood platelets was adjusted to be 6×10^5 per ul. According to the method reported by Born et al. [G. V. R. Born et al.: J. Physiol. 62, 67-68 (1962)], blood platelet aggregation was determined by an increase in light transmission measured using an aggregometer. 3 ul of a solution of the test compound in dimethyl sulfoxide were added to 272 ul of PRP, and, after 1 minute, 25 ul of a physiological saline solution containing l-c16:0 PAF (at a final concentration of 10^-8 ~3×10^-8 M) were added. […] At the end of this value and the value of PAF-induced aggregation which was observed when dimethyl sulfoxide only was used without the addition of any test compound. IC50 values were calculated from the dose-response curve.

PAF-receptor = molecular target: T1, PAF-receptor (Oryctolagus cuniculus, UniProt G1TEI7); test: Inhibitor effect on PAF-receptor binding; settings: specific binding of ^3H-PAF; rabbit platelet PAF-receptor membrane fraction; read-out: Inhibition of receptor binding (IC50 M)
T1 construct: is regarded as a PAF-receptor membrane fraction; from tissue; host or cells: rabbit blood platelets (membrane fraction from sucrose density layers)
Source text: Inhibitor effect on PAF-receptor binding
Blood samples were drawn from the heart of a rabbit. 1 part by volume of each sample was mixed immediately with 1/9 part of 0.77M solution of disodium ethylenediaminetetraacetate. After a similar procedure to that described in Experiment 2, a precipitated blood platelet sample was obtained. This blood platelet sample was washed, and, after repeated freezing and thawing for cellular breakdown, it was laid on top of double layers consisting of […] and 1.5M sucrose solutions. By centrifugation at 63,500×G, for 2 hours at 4° C., the fraction obtained from the interface between the 0.25M and 1.5M sucrose solutions was collected and is regarded as a PAF-receptor membrane fraction. A receptor binding experiment was conducted according to a method very similar to that reported by Hwang et al. [San-Bao Hwang et al.: J. Biol. Chem. 260, 15639-15645 (1985)]. The specific binding of ^3 H-PAF was measured using a Wattman GF/C filter. A test compound was dissolved in dimethyl sulfoxide and diluted 100 fold with a buffer solution containing 0.5% bovine serum albumin. Nine parts by weight of the solution, for a receptor binding experiment, was mixed with one part of the test compound solution prepared above. The percent inhibition of the specific binding was plotted for a log concentration of the test compound, and the 50% inhibitory concentration (IC50) was calculated from the linear line connecting all the plotted points.

T1 sequence (G1TEI7 1-342): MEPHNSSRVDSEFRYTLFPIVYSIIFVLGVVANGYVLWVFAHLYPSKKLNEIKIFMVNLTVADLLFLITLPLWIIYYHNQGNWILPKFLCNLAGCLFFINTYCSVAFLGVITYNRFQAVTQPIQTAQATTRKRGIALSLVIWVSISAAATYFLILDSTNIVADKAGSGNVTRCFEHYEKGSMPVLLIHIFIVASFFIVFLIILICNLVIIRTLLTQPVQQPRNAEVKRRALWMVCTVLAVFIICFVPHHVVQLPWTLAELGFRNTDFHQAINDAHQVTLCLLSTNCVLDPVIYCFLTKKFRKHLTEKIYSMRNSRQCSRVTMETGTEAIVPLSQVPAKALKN

Structure (SMILES)	ED50 (PAF-induced hypotension)	Acute toxicity (survival) (Acute toxicity)	IC50 [1]	IC50 (PAF-receptor)
COc1ccc(/C(=C/C(=O)N2CCN(C(=O)c3cc(OC)c(OC)c(OC)c3)CC2)c2ccccc2)cc1OC [Example 7, 1-[(E)-3-(3,4-Dimethoxyphenyl)cinnamoyl]-4-(3,4,5-trimethoxybenzoyl)piperazine]	0.014 mg/kg	all mice survived		
COc1ccc(C(=CC(=O)N2CCN(C(=O)c3cc(OC)c(OC)c(OC)c3)CC2)c2ccc(OC)cc2)cc1 [Example 2, 1-[3,3-Bis(4-methoxyphenyl)acryloyl]-4-(3,4,5-trimethoxybenzoyl)piperazine]	0.039 mg/kg	all mice survived	0.2 µM	
COc1ccc(/C(=C/C(=O)N2CCN(C(=O)c3cc(OC)c(OC)c(OC)c3)CC2)c2ccc(Cl)cc2)cc1OC [Example 15, 1-[(E)-3-(4-Chlorophenyl)-3-(3,4-dimethoxyphenyl)acryloyl]-4-(3,4,5-trimethoxybenzoyl)piperazine]	0.022 mg/kg	all mice survived	0.068 µM	0.043 µM
COc1ccc(/C(=C/C(=O)N2CCN(C(=O)c3cc(OC)c(OC)c(OC)c3)CC2)c2ccc(Cl)c(Cl)c2)cc1 [Example 31, 1-[(Z)-3-(3,4-Dichlorophenyl)-3-(4-methoxyphenyl)acryloyl]-4-(3,4,5-trimethoxybenzoyl)piperazine]	0.0067 mg/kg		0.044 µM	0.014 µM
